Laboratory results: patent publication US20070142635A1, “Process for preparing hexahydropyrimido[1,2-a]azepine-2-carboxylates and related compounds” (priority 2003, published 2007)

Target: HIV integrase (Human immunodeficiency virus type 1 group M subtype B, UniProt P04585)
Assay: assay described in WO 02/30930 for inhibition of strand transfer in HIV integrase
Type: biochemical
Text: As is clear from the foregoing description, compounds embraced by Formula X or XI and precursors thereof are useful as intermediates in the preparation of Compounds XII, XIII and XIV, which are HIV integrase inhibitors useful, inter alia, in treating HIV infection.

Compound: CN(C)C(=O)C(=O)N(C)C1CCCCn2c1nc(C(=O)NCc1ccc(F)cc1)c(O)c2=O (racemic) [Compound 14, N-(2-{[(4-fluorobenzyl)amino]carbonyl}-3-hydroxY4-oxo-4,6,7,8,9,10-hexahydropyrnidor[1,2-α]azepin-10-yl)-N,N′,N′-trimethylethanediamide]
- inhibition of strand transfer in HIV integrase: exhibited activity
